Measured values reported in ChEMBL document CHEMBL2440076, “New triarylpyrazoles as broad-spectrum anticancer agents: design, synthesis, and biological evaluation” (Eur J Med Chem, 2013).

Columns and labels:
NCI-H460 = assay: Growth inhibition of human NCI-H460 cells assessed as cell growth at 10 uM after 48 hrs by sulforhodamine B assay; format: functional; conditions: NCI-H460, 48 h, read-out: Activity
OVCAR-8 [1] = assay: Growth inhibition of human OVCAR8 cells after 48 hrs by sulforhodamine B assay; format: functional; conditions: OVCAR-8, 48 h
TK-10 = assay: Growth inhibition of human TK10 cells after 48 hrs by sulforhodamine B assay; format: functional; conditions: TK-10, 48 h
SW-620 = assay: Growth inhibition of human SW620 cells after 48 hrs by sulforhodamine B assay; format: functional; conditions: SW-620, 48 h
UACC-257 = assay: Growth inhibition of human UACC257 cells assessed as cell growth at 10 uM after 48 hrs by sulforhodamine B assay; format: functional; conditions: UACC-257, 48 h, read-out: Activity
CAKI-1 = assay: Growth inhibition of human CAKI-1 cells after 48 hrs by sulforhodamine B assay; format: functional; conditions: CAKI-1, 48 h
UO-31 = assay: Growth inhibition of human UO31 cells assessed as cell growth at 10 uM after 48 hrs by sulforhodamine B assay; format: functional; conditions: UO-31, 48 h, read-out: Activity
SK-MEL-5 [2] = assay: Growth inhibition of human SK-MEL-5 cells assessed as cell growth at 10 uM after 48 hrs by sulforhodamine B assay; format: functional; conditions: SK-MEL-5, 48 h, read-out: Activity
OVCAR-5 = assay: Growth inhibition of human OVCAR5 cells assessed as cell growth at 10 uM after 48 hrs by sulforhodamine B assay; format: functional; conditions: OVCAR-5, 48 h, read-out: Activity
HOP-92 = assay: Growth inhibition of human HOP92 cells after 48 hrs by sulforhodamine B assay; format: functional, cell-based; conditions: HOP-92, 48 h
RPMI-8226 [3] = assay: Growth inhibition of human RPMI8226 cells after 48 hrs by sulforhodamine B assay; format: functional, cell-based; conditions: RPMI-8226, 48 h
MOLT-4 = assay: Growth inhibition of human MOLT4 cells assessed as cell growth at 10 uM after 48 hrs by sulforhodamine B assay; format: functional; conditions: MOLT-4, 48 h, read-out: Activity
K562 = assay: Growth inhibition of human K562 cells assessed as cell growth at 10 uM after 48 hrs by sulforhodamine B assay; format: functional; conditions: K562, 48 h, read-out: Activity
Malme-3M = assay: Growth inhibition of human MALME-3M cells assessed as cell growth at 10 uM after 48 hrs by sulforhodamine B assay; format: functional; conditions: read-out: Activity
SK-OV-3 = assay: Growth inhibition of human SKOV3 cells after 48 hrs by sulforhodamine B assay; format: functional; conditions: SK-OV-3, 48 h
CCRF-CEM = assay: Growth inhibition of human CCRF-CEM cells after 48 hrs by sulforhodamine B assay; format: functional
HL-60(TB) = assay: Growth inhibition of human HL-60(TB) cells after 48 hrs by sulforhodamine B assay; format: functional; conditions: HL-60, 48 h
OVCAR-4 = assay: Growth inhibition of human OVCAR4 cells after 48 hrs by sulforhodamine B assay; format: functional; conditions: OVCAR-4, 48 h
UACC-62 = assay: Growth inhibition of human UACC62 cells assessed as cell growth at 10 uM after 48 hrs by sulforhodamine B assay; format: functional; conditions: UACC-62, 48 h, read-out: Activity
SN12C = assay: Growth inhibition of human SN12C cells assessed as cell growth at 10 uM after 48 hrs by sulforhodamine B assay; format: functional; conditions: read-out: Activity
NCI-H522 = assay: Growth inhibition of human NCI-H522 cells after 48 hrs by sulforhodamine B assay; format: functional; conditions: NCI-H522, 48 h
MDA-MB-468 [4] = assay: Growth inhibition of human MDA-MB-468 cells after 48 hrs by sulforhodamine B assay; format: functional, cell-based; conditions: MDA-MB-468, 48 h
MDA-MB-468 [5] = assay: Growth inhibition of human MDA-MB-468 cells assessed as cell growth at 10 uM after 48 hrs by sulforhodamine B assay; format: functional; conditions: MDA-MB-468, 48 h, read-out: Activity
SF-539 = assay: Growth inhibition of human SF539 cells assessed as cell growth at 10 uM after 48 hrs by sulforhodamine B assay; format: functional; conditions: SF-539, 48 h, read-out: Activity
T47D = assay: Growth inhibition of human T47D cells assessed as cell growth at 10 uM after 48 hrs by sulforhodamine B assay; format: functional; conditions: read-out: Activity
OVCAR-3 = assay: Growth inhibition of human OVCAR3 cells after 48 hrs by sulforhodamine B assay; format: functional, cell-based; conditions: OVCAR-3, 48 h
786-0 = assay: Growth inhibition of human 786-0 cells after 48 hrs by sulforhodamine B assay; format: functional; conditions: 786-0, 48 h
SK-MEL-5 [6] = assay: Growth inhibition of human SK-MEL-5 cells after 48 hrs by sulforhodamine B assay; format: functional; conditions: SK-MEL-5, 48 h
RPMI-8226 [7] = assay: Growth inhibition of human RPMI8226 cells assessed as cell growth at 10 uM after 48 hrs by sulforhodamine B assay; format: functional; conditions: RPMI-8226, 48 h, read-out: Activity
NCI-H226 = assay: Growth inhibition of human NCI-H226 cells assessed as cell growth at 10 uM after 48 hrs by sulforhodamine B assay; format: functional; conditions: NCI-H226, 48 h, read-out: Activity
OVCAR-8 [8] = assay: Growth inhibition of human OVCAR8 cells assessed as cell growth at 10 uM after 48 hrs by sulforhodamine B assay; format: functional; conditions: OVCAR-8, 48 h, read-out: Activity
RXF 393 = assay: Growth inhibition of human RXF393 cells assessed as cell growth at 10 uM after 48 hrs by sulforhodamine B assay; format: functional; conditions: RXF 393, 48 h, read-out: Activity
IGROV-1 = assay: Growth inhibition of human IGROV1 cells assessed as cell growth at 10 uM after 48 hrs by sulforhodamine B assay; format: functional; conditions: IGROV-1, 48 h, read-out: Activity
[9] = read-out: LC50 (the source's name)

Which growth at 10 µM (NCI-H460) does the source give for `COc1cc(-c2nn(-c3cccc(NC(=O)Nc4ccc(Cl)c(C(F)(F)F)c4)c3)cc2-c2ccncc2)ccc1Cl` here?
The growth at 10 µM was 1.7%.

And the GI50 (OVCAR-8 [1])?
The GI50 was 1050 nM.

And the TGI (OVCAR-8 [1])?
The TGI was 5870 nM.

And the CC50 (OVCAR-8 [1]; [9])?
Its CC50 is > 32500 nM.

And the GI50 (TK-10)?
The GI50 was 1520 nM.

What about the TGI (TK-10) of the same compound?
The TGI was 13500 nM.

What about the CC50 (TK-10; [9]) of the same compound?
Its CC50 is > 32500 nM.

And the GI50 (SW-620)?
Its GI50 is 1290 nM.

And the TGI (SW-620)?
The TGI was 29900 nM.

What about the CC50 (SW-620; [9]) of the same compound?
The CC50 was > 32500 nM.

And the growth at 10 µM (UACC-257)?
Its growth at 10 µM is -37.6%.

And the GI50 (CAKI-1)?
Its GI50 is 992 nM.

And the TGI (CAKI-1)?
Its TGI is 4720 nM.

What about the CC50 (CAKI-1; [9]) of the same compound?
The CC50 was > 32500 nM.

And the growth at 10 µM (UO-31)?
Its growth at 10 µM is 11%.

What about the growth at 10 µM (SK-MEL-5 [2]) of the same compound?
The growth at 10 µM was -65.3%.

And the growth at 10 µM (OVCAR-5)?
The growth at 10 µM was 35.8%.

What about the GI50 (HOP-92) of the same compound?
The GI50 was 499 nM.

And the IC50 (HOP-92)?
Its IC50 is 500 nM.

What about the LC50 (HOP-92) of the same compound?
Its LC50 is > 32500 nM.

And the TGI (HOP-92)?
The TGI was 1480 nM.

And the GI50 (RPMI-8226 [3])?
The GI50 was 868 nM.

What about the IC50 (RPMI-8226 [3]) of the same compound?
Its IC50 is 870 nM.

What about the TGI (RPMI-8226 [3]) of the same compound?
The TGI was 3250 nM.

And the CC50 (RPMI-8226 [3]; [9])?
The CC50 was > 32500 nM.

And the growth at 10 µM (MOLT-4)?
Its growth at 10 µM is -2.38%.

And the growth at 10 µM (K562)?
The growth at 10 µM was 3.8%.

And the growth at 10 µM (Malme-3M)?
The growth at 10 µM was -14.9%.

What about the GI50 (SK-OV-3) of the same compound?
Its GI50 is 1450 nM.

And the TGI (SK-OV-3)?
The TGI was 13000 nM.

What about the CC50 (SK-OV-3; [9]) of the same compound?
The CC50 was > 32500 nM.

What about the GI50 (CCRF-CEM) of the same compound?
The GI50 was 980 nM.

And the LC50 (CCRF-CEM)?
Its LC50 is > 32500 nM.

What about the TGI (CCRF-CEM) of the same compound?
Its TGI is > 32500 nM.

And the GI50 (HL-60(TB))?
Its GI50 is 1170 nM.

And the TGI (HL-60(TB))?
The TGI was > 32500 nM.

What about the CC50 (HL-60(TB); [9]) of the same compound?
The CC50 was > 32500 nM.

What about the GI50 (OVCAR-4) of the same compound?
The GI50 was 1290 nM.

And the LC50 (concentration killing 50% of cells) (OVCAR-4)?
The LC50 (concentration killing 50% of cells) was > 32500 nM.

What about the TGI (OVCAR-4) of the same compound?
The TGI was 25600 nM.

What about the growth at 10 µM (UACC-62) of the same compound?
The growth at 10 µM was -43.8%.

What about the growth at 10 µM (SN12C) of the same compound?
The growth at 10 µM was 12.6%.

What about the GI50 (NCI-H522) of the same compound?
The GI50 was 1140 nM.

What about the LC50 (concentration killing 50% of cells) (NCI-H522) of the same compound?
Its LC50 (concentration killing 50% of cells) is > 32500 nM.

What about the TGI (NCI-H522) of the same compound?
Its TGI is 6060 nM.

What about the GI50 (MDA-MB-468 [4]) of the same compound?
Its GI50 is 833 nM.

What about the IC50 (MDA-MB-468 [4]) of the same compound?
The IC50 was 830 nM.

And the TGI (MDA-MB-468 [4])?
Its TGI is 4420 nM.

What about the CC50 (MDA-MB-468 [4]; [9]) of the same compound?
Its CC50 is > 32500 nM.

What about the growth at 10 µM (MDA-MB-468 [5]) of the same compound?
Its growth at 10 µM is -7.22%.

And the growth at 10 µM (SF-539)?
The growth at 10 µM was 6.56%.

What about the growth at 10 µM (T47D) of the same compound?
The growth at 10 µM was 0.62%.

What about the GI50 (OVCAR-3) of the same compound?
Its GI50 is 889 nM.

And the IC50 (OVCAR-3)?
Its IC50 is 890 nM.

And the TGI (OVCAR-3)?
The TGI was 2440 nM.

What about the CC50 (OVCAR-3; [9]) of the same compound?
The CC50 was > 32500 nM.

What about the GI50 (786-0) of the same compound?
Its GI50 is 1610 nM.

And the TGI (786-0)?
The TGI was 8020 nM.

What about the CC50 (786-0; [9]) of the same compound?
Its CC50 is > 32500 nM.

And the GI50 (SK-MEL-5 [6])?
Its GI50 is 818 nM.

What about the LC50 (concentration killing 50% of cells) (SK-MEL-5 [6]) of the same compound?
The LC50 (concentration killing 50% of cells) was 10400 nM.

And the TGI (SK-MEL-5 [6])?
Its TGI is 2890 nM.

And the growth at 10 µM (RPMI-8226 [7])?
Its growth at 10 µM is -8.66%.

What about the growth at 10 µM (NCI-H226) of the same compound?
Its growth at 10 µM is 12.1%.

And the growth at 10 µM (OVCAR-8 [8])?
The growth at 10 µM was -19.9%.

What about the growth at 10 µM (RXF 393) of the same compound?
Its growth at 10 µM is -27.8%.

And the growth at 10 µM (IGROV-1)?
Its growth at 10 µM is 25.6%.
